Test results as given in US20220009920A1 (GB005, Inc., priority 2020, published 2022).

What was measured:
Assay in all cases: Large panel kinase profiling
Format in all cases: biochemical
Conditions in all cases: 1 μM test article, 1 mM ATP
MAP3K8 = target: T1, MAP3K8 (Homo sapiens, UniProt P41279)
T1 construct: AssayQuant Technologies, Inc. (service provider)
Outline: (§1)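 One compound concentration (1 μM) was screened against each kinase at 1 mM ATP using PhosphoSens CSox-Sensor detection, at 30° C., with fluorescence read every 1 min (Ex 360 nm/Em 485 nm).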

MAPKAPK3/MK3 = target: T2, MAPKAPK3/MK3 (Homo sapiens, UniProt Q16644)
T2 construct: AssayQuant Technologies, Inc. (service provider)
Outline: as §1

EPHB4 = target: T3, EPHB4 (Homo sapiens, UniProt P54760)
T3 sequence (P54760 16-987): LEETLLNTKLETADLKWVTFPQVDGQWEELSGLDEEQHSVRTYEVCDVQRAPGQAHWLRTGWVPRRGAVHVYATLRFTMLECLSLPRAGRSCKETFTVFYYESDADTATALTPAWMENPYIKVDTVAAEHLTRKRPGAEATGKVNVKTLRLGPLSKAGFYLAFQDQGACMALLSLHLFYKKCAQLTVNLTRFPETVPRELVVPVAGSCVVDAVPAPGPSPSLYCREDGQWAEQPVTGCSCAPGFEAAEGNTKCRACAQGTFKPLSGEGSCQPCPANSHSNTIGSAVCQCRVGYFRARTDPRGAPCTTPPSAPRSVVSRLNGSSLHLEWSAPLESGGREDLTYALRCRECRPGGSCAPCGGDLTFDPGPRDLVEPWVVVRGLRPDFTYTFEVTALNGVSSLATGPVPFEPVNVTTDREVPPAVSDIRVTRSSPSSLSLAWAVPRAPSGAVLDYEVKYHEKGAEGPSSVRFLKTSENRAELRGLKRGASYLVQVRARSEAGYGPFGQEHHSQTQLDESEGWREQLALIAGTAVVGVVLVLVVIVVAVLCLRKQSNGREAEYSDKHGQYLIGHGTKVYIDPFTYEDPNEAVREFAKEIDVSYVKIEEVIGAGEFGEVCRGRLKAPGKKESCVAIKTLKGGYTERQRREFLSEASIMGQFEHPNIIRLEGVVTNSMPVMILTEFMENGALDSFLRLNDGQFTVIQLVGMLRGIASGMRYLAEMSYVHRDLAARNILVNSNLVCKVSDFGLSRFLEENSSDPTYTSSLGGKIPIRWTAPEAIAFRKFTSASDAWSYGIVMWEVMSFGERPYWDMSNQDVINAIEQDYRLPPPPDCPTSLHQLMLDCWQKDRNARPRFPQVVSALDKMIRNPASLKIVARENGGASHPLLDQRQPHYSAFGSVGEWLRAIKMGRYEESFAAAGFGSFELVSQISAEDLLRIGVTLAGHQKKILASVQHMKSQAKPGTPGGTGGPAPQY
Outline: as §1

PIM1 = PIM1 (Homo sapiens, UniProt P11309)
Outline: as §1

TEK/TIE2 = target: T4, TEK/TIE2 (Homo sapiens, UniProt Q02763)
T4 construct: AssayQuant Technologies, Inc. (contract laboratory that ran the panel)
Outline: as §1

PAK2 = PAK2 (Homo sapiens, UniProt Q13177)
Outline: as §1

MAP3K13 = target: T5, MAP3K13 (Homo sapiens, UniProt O43283)
T5 sequence (O43283 1-966): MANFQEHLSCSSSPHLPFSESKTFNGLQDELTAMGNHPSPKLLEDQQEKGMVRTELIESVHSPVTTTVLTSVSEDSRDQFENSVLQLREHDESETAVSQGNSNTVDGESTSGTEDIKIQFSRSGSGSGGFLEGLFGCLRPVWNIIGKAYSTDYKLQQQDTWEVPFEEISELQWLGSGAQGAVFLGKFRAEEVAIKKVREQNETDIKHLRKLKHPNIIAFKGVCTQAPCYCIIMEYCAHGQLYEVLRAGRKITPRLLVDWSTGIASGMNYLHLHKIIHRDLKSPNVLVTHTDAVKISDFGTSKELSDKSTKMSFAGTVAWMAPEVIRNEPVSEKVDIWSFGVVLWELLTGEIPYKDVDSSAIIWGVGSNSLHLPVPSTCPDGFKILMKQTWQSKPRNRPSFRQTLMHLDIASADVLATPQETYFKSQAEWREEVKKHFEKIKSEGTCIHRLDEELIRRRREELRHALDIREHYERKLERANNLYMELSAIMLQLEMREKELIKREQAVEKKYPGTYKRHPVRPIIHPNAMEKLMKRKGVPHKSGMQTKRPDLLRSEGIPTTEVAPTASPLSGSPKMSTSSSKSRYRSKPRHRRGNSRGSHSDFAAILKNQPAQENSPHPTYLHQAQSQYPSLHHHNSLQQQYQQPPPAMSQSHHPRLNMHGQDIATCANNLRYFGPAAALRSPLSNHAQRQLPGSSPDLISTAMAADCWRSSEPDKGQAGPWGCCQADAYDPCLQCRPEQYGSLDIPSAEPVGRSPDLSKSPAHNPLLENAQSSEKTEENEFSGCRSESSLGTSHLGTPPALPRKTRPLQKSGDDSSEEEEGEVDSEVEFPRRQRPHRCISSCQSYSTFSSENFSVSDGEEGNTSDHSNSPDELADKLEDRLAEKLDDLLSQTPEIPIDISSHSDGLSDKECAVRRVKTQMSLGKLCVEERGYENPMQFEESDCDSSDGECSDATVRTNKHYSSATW
Outline: as §1

Sequence of PIM1 (P11309 whole entry, species assumed): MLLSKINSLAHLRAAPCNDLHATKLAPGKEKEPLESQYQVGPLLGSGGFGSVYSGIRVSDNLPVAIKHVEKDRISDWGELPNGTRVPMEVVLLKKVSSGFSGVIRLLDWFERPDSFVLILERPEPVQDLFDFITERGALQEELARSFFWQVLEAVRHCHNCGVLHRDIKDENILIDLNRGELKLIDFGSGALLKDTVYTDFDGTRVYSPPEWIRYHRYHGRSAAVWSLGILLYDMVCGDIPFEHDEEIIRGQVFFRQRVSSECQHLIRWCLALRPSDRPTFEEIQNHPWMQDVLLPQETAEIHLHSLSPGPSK
Sequence of PAK2 (Q13177 whole entry, species assumed): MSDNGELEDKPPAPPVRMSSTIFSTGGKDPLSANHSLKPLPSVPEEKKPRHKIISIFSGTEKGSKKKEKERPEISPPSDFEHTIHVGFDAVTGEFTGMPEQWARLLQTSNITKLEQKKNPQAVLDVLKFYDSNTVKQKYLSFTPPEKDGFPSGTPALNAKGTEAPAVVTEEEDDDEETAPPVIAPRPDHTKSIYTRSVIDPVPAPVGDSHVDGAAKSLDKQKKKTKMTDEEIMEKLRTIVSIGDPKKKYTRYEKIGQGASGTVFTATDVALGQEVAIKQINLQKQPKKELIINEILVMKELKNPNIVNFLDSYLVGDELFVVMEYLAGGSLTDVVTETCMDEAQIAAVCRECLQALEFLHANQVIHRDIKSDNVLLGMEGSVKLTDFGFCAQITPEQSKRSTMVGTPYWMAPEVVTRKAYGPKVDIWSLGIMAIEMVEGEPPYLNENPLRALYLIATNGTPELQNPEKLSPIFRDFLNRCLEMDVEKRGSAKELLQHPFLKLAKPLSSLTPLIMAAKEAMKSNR
T4 sequence (Q02763 23-1124): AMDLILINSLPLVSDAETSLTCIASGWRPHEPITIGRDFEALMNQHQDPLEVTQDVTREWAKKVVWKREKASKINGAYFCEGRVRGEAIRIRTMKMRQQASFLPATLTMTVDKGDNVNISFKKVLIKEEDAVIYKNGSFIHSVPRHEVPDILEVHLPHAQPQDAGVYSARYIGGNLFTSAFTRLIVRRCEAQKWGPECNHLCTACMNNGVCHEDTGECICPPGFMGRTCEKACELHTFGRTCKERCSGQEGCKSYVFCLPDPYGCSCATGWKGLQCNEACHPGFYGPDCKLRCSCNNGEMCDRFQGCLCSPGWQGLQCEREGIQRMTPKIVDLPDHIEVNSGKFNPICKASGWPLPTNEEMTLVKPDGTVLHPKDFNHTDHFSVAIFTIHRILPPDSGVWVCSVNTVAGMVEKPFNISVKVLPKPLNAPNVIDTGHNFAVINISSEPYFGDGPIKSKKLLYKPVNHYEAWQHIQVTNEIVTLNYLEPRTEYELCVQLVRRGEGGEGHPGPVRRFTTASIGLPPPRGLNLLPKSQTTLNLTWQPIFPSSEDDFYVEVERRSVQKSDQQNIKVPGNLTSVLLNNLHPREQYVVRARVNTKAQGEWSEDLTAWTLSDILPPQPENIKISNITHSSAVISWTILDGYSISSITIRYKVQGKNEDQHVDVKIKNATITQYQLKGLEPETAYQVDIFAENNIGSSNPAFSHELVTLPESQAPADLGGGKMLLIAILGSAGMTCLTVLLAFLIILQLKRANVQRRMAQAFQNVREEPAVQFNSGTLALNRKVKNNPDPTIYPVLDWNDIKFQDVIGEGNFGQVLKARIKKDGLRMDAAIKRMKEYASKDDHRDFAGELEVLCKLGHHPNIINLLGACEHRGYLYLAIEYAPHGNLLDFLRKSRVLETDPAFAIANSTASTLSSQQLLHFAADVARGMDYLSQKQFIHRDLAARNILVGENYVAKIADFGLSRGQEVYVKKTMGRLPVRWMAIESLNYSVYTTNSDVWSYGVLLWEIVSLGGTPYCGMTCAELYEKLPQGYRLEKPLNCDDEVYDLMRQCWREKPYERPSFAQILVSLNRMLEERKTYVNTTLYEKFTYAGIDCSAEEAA
T1 sequence (P41279 whole entry, species assumed): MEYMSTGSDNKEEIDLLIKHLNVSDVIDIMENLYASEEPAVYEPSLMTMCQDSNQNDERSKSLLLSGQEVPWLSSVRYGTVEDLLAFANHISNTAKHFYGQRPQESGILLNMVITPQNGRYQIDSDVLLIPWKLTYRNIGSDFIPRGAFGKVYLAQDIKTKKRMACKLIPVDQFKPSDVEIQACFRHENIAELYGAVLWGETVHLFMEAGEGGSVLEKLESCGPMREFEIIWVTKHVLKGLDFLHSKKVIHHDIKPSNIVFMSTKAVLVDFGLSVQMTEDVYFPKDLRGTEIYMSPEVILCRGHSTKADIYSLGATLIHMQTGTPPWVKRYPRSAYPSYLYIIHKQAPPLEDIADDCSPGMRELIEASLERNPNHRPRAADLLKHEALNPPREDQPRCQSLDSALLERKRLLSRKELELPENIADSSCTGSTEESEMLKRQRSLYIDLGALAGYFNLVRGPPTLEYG
T2 sequence (Q16644 whole entry): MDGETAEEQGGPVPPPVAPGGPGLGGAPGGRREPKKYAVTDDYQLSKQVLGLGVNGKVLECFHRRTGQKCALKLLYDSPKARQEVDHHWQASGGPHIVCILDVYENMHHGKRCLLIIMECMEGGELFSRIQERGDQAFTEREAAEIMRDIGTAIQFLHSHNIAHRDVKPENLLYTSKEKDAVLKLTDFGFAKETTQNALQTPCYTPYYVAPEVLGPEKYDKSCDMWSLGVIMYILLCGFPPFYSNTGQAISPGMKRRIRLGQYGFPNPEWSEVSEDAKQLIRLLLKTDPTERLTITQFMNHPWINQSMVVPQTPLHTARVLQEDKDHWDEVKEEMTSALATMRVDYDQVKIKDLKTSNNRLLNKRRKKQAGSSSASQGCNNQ

| Compound | inhibition at 1 µM (MAP3K8) [%] | inhibition at 1 µM (MAPKAPK3/MK3) [%] | inhibition at 1 µM (EPHB4) [%] | inhibition at 1 µM (PIM1) [%] | inhibition at 1 µM (TEK/TIE2) [%] | inhibition at 1 µM (PAK2) [%] | inhibition at 1 µM (MAP3K13) [%] |
| --- | --- | --- | --- | --- | --- | --- | --- |
| C=CC(=O)N1CCCC(c2c(F)cc(C(N)=O)c3[nH]c4c(c23)CCCCC4)C1 (single isomer, unassigned) [Compound 5-6] | 7.4 | 2.1 | 7 | 7 | -11.2 | 13.9 | 3.6 |
| C=CC(=O)N1CCC[C@@H](c2c(F)cc(C(N)=O)c3[nH]c4c(c23)CC2(CC4)CC2)C1 [Compound 6-2, (S)-5-(1-acryloylpiperidin-3-yl)-6-fluoro-1,2,4,9-tetrahydrospiro[carbazole-3,1′-cyclopropane]-8-carboxamide] | 10.1 | 1.5 | 7.4 | -43 | 4.6 | 1.3 | 16.1 |
| C=CC(=O)N1CCC[C@@H](c2c(F)cc(C(N)=O)c3[nH]c4c(c23)CCC4)C1 [Compound 10-2, (S)-8-(1-acryloylpiperidin-3-yl)-7-fluoro-1,2,3,4-tetrahydrocyclo-penta[b]indole-5-carboxamide] | 4.5 | -42.3 | -8.5 | -7.1 | -15.2 | 7 | 3.2 |
